Measurements published in US7265103B2, “Substituted amino isoxazoline derivatives and their use as anti-depressants” (Janssen Pharmaceutica NV., priority 2002, dated 2007).

Experiments:
hα2A receptor = biological target: T1, hα2A receptor (Homo sapiens, UniProt P08913); assay: Radioligand binding experiment for α2A-adrenergic receptor ([3H]-raulwolscine); conditions: CHO cell membranes with human α2A receptor, [3H]raulwolscine 1 nM; read-out: pIC50 α2A (converted)
T1 construct: expressed in transfected cells; host or cells: CHO cells
T1 sequence (P08913 1-465): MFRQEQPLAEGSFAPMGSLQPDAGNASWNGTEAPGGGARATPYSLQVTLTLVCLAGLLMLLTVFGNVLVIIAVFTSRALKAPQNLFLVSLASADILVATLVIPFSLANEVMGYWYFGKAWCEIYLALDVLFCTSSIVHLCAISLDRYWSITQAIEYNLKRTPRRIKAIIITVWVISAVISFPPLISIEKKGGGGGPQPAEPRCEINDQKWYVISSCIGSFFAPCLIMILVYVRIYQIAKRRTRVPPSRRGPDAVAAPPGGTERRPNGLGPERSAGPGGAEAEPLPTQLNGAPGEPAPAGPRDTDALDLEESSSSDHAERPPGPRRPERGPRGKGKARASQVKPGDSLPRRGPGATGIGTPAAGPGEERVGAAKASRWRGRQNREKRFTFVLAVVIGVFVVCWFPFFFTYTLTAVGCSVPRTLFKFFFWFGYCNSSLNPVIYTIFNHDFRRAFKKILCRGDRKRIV
In short: (§1)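 Membranes from CHO cells stably expressing human α2A or α2C receptors (sodium butyrate-induced) incubated with 1 nM [3H]raulwolscine in 25 mM glycylglycine pH 8.0 for 60 min at 25° C, then filtered. Non-specific binding defined with 1 μM oxymetazoline (α2A) or 1 μM spiroxatrine (α2C); pIC50 from sigmoidal competition curves.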

h5-HT transporter = biological target: T2, h5-HT transporter (Homo sapiens, UniProt P31645); assay: Radioligand binding experiment for 5-HT transporter ([3H]paroxetine); conditions: human platelet membranes, [3H]paroxetine 0.5 nM
T2 construct: Human platelet membranes (Oceanix Biosciences Corporation, Hanover, Md., USA) were thawed; tissue Oceanix Biosciences Corporation; host or cells: human platelet membranes
In short: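 Competition binding on human platelet membranes (50-100 μg protein) in 50 mM Tris-HCl, 120 mM NaCl, 5 mM KCl with 0.5 nM [3H]paroxetine, 60 min at 25 °C, filtration and scintillation counting. Non-specific binding defined with 1 μM imipramine; pIC50 from nonlinear sigmoidal fits of percent total binding.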

hα2C receptor = biological target: T3, hα2C receptor (Homo sapiens, UniProt P18825); assay: Radioligand binding experiment for α2C-adrenergic receptor ([3H]-raulwolscine); conditions: CHO cell membranes with human α2C receptor, [3H]raulwolscine 1 nM; read-out: pIC50 α2C (converted)
T3 construct: expressed in transfected cells; host or cells: CHO cells
T3 sequence (P18825 1-462): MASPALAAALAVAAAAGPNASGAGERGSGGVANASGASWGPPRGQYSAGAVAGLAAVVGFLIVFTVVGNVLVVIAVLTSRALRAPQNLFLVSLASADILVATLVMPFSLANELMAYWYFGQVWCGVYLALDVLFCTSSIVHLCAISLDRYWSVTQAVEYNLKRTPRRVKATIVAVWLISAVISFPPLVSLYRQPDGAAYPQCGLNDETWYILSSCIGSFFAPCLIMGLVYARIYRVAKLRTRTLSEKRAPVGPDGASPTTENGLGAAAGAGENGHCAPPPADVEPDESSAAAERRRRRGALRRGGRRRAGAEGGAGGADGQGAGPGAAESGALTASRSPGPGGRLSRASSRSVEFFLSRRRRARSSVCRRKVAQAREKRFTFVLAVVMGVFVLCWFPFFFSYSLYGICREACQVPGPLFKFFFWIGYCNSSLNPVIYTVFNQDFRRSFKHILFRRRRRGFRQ
In short: as §1

T2 sequence (P31645 whole entry): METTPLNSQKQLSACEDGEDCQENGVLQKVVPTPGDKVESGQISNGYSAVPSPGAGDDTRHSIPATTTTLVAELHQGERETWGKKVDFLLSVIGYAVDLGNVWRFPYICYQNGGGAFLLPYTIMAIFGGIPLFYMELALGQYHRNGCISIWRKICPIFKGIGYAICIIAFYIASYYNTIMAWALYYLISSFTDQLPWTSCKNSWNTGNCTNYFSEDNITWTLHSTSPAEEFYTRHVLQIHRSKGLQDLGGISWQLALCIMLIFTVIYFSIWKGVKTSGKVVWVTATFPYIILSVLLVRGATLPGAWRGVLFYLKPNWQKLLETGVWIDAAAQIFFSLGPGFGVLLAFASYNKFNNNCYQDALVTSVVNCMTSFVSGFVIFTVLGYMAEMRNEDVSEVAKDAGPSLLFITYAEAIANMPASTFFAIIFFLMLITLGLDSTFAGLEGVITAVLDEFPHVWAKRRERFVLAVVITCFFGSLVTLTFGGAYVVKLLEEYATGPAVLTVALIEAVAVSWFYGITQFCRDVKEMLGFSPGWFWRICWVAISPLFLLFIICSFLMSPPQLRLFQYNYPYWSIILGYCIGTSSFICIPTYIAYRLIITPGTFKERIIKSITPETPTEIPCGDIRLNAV

Structure (SMILES) | melting point [°C] | IC50 (hα2A receptor) [nM] | IC50 (h5-HT transporter) [nM] | IC50 (hα2C receptor) [nM]
COc1cc2c(cc1NCCN1CCCC1)OCC1C2=NOC1CN1CCN(CC(C)=Cc2ccccc2)CC1 (stereo not drawn) [Compound 26] | 120.4 to 123 | 5.01 | 3.16 | < 1
CC(=Cc1ccccc1)CN1CCN(CC2ON=C3c4ccc(NC(=O)C(C)(C)C)cc4OCC32)CC1 (stereo not drawn) [Compound 50] | 183.4 to 190.2 | 3.16 | 15.8 | 1
COc1cc2c(cc1NCCN(C)C)OCC1C2=NOC1CN1CCN(CC(C)=Cc2ccc(F)cc2)CC1 (stereo not drawn) [Compound 24] | 157.7 to 159.9 | 25.1 | 5.01 | 1.58
C=CC(=O)Nc1ccc2c(c1)OCC1C2=NOC1CN1CCN(CC(C)=Cc2ccccc2)CC1 (stereo not drawn) [Compound 54] | 136.1 to 172.9 | 1.58 | 25.1 | 0.794
CC(=O)Nc1ccc2c(c1)OCC1C2=NOC1CN1CCN(C/C(C)=C/c2ccccc2)CC1 (stereo not drawn) [Compound 6] | 112.1 to 126.7 | 3.16 | 50.1 | 2.51
CC(=Cc1ccccc1)CN1CCN(CC2ON=C3c4ccc(NC(=O)Nc5cccc(F)c5)cc4OCC32)CC1 (stereo not drawn) [Compound 65] | 186.8 to 188.5 | 79.4 | 1580 | 31.6
CNCCN(C)c1ccc2c(c1)OCC1C2=NOC1CN1CCN(CC(C)=Cc2ccc(F)cc2)CC1 (stereo not drawn) [Compound 21] | 98.4 to 105.3 | 7.94 | 3.98 | 2
C/C(=C\c1ccc(F)cc1)CN1CCN(CC2ON=C3c4ccc(NS(=O)(=O)c5ccc(C)cc5)cc4OCC32)CC1 (stereo not drawn) [Compound 3] | 177 to 194.1 | 79.4 | 39.8 | 31.6
COc1cc2c(cc1N1CCN(C)CC1)OCC1C2=NOC1CN1CCN(CC(C)=Cc2ccccc2)CC1 (stereo not drawn) [Compound 75] | 142.8 to 144.4 | 1.58 | 7.94 | < 1
